Data reported in US9789199B2, “MetAP-2 inhibitor polymersomes for therapeutic administration” (priority 2007, dated 2017).
“Also recorded” adds a separate entry of the source.

Assays:
LLC tumors = assay: Oral Lodamin vs free TNP-470, primary Lewis lung carcinoma tumor experiments; type: in vivo, mouse; details: free TNP-470 given orally, 30 mg/kg q.o.d.
Description: For tumor experiments: LLC cells (1×10^6) or B16/F10 melanoma cells (1×10^6) were implanted subcutaneously in 8 week old C57Bl/6J male mice (Jackson Laboratories, Bar Harbor, Me.). Oral availability of free TNP-470 was compared to that of Lodamin. A dose of 30 mg/kg q.o.d. of free TNP-470 and an equivalent dose of Lodamin (Lodamin, 6 mg in 100 μl/d) were administered to LLC tumor bearing mice (˜100 mm^3) and tumor growth was followed for 18 d. Free drug was given as a suspension in double distilled water and freshly prepared before each dose. Additionally, we compared different doses and frequencies of Lodamin treatment: 15 mg/kg q.d., 15 mg/kg q.o.d. and 30 mg/kg q.o.d. To eliminate any possible effect of the vehicle (polymer without drug) one group of mice was given micelles without drug and tumor progression was compared to water treated mice.
For the melanoma tumor experiment, a dose of 15 mg/kg q.d. Lodamin was administered to B16/F10 melanoma bearing mice. In all experiments, tumor size and animal weight were monitored every 2 d. Tumor volume was measured with calipers in two diameters as follows: (width)^2×(length)×0.52. Note that all the above Lodamin doses are presented as TNP-470 equivalent.

[1] = Body distribution and serum levels after oral administration; type: in vivo, mouse; details: post-administration
Description: For all biodistribution studies we used a fluorescent marker for tracking Lodamin. Mice were administered 6-coumarin labeled mPEG-PLA by oral gavage for 3 d (100 μl of 1.5 mg/ml). On the third day of treatment, after 8 h of fasting, animals were sacrificed and spleen, kidney, brain, lungs, liver, intestine, stomach, and bladder were collected. The fluorescent 6-coumarin was extracted from the tissues by incubation with formamide for 48 h at 25° C. Samples were centrifuged and signal intensity of fluorescence of supernatants was detected with a Wallac 1420 VICTOR plate-reader (Perkin-Elmer Life Sciences) with excitation/emission at 488 nm/530 nm. […] Tissue autofluorescence was corrected by subtracting the fluorescent signal of non-treated mouse organs from the respective readings in treated mice. Similarly, levels of fluorescent signal in mouse sera were measured in different time points (1, 2, 4, 8, 24, 48 and 72 h) using excitation/emission readings at 488 nm/530 nm.
In order to analyze cell uptake in the different tissues in tumor bearing mice, PEG-PLA-rhodamine micelles (100 μl of 1.5 mg/ml) or water were orally administered to C57Bl/6J mice bearing LLC tumors (200 mm^3) for 3 d. […] These suspensions were analyzed by flow cytometry in order to quantify the uptake of micelles into different tissue cells when compared to those in the untreated mouse.

[2] = Balance beam motor coordination test (neurotoxicity); type: in vivo, mouse; details: free TNP-470 injected subcutaneously 30 mg/kg q.o.d., vs control
Description: A slightly modified balance beam motor coordination test was performed on three groups of mice: Oral Lodamin treated mice (30 mg/kg eq. q.o.d.), free TNP-470 (30 mg/kg) subcutaneously injected mice and water treated mice (administered by gavage). The mice were pretreated for 14 d (n=4-5 per group) and then the mice were allowed to acclimate to the procedure room for 1 h, after which they were trained in 3 trials to cross a wide (20 mm width×1 m length) balance beam. All the mice crossed the wide beam without making foot-slip errors. The mice were then trained on a narrow (4 mm width×1 m length) beam for 3 trials. At the end of the training trials, no freezing behavior was observed, and the mice would start to walk within 4 seconds of being placed on the beam. The mice were then videotaped as they performed in 3 test trials of 3 beam crossings each—a total of 9 crossings per mouse. The 3 trials were separated by at least 1 h to avoid fatigue of the mice. Videotaped crossings were scored for number of foot-slip errors and time to cross. All experiments and scoring of the different groups were performed by an investigator who has been no knowledge regarding the treatment regime of the mice.

RAGE and HMGB-1 = RAGE and HMGB-1 protein levels in HMVEC; type: cell-based; details: 0.1-100 nM
Description: A dose dependent effect on RAGE expression was detected.
RPE cells were cultivated as has been previously described^59. […] HMVECs, were purchased from Cambrex Bio Science Inc. (Rockland, Me.) and were maintained on collagen I coated plates with endothelial cell growth medium containing 2% FBS (EGM-2; Cambrex, Inc.) at 37° C. with humidified 95% air/5% CO2.
Lodamin Reduces MCP-1 and VEGF Induced Vessel Permeability

[3] = tested on: murine, human and metastatic tumors; details: mice, cited from earlier work
obesity = details: mice; cited from earlier work
[4] = high chemotherapeutic doses; cited from earlier work
[5] = parent drug; cited from earlier work

For “6-O—(N-chloroacetylcarbamoyl)fumagillol [TNP-470]”, the “effect on growth of subcutaneous LLC tumors” value (LLC tumors) was “no inhibition; also recorded: had no effect”, the “time up to which free drug was detected in mice sera” value [1] was “up to 2 h” and the “balance beam foot-slip errors” value [2] was “over twice as many errors”. For the same substance, the “RAGE and HMGB-1 levels” value (RAGE and HMGB-1) was “reduced in a dose dependent manner”, the “inhibition of growth of human tumors” value [3] was “up to 100%” and the “inhibition of growth of metastatic tumors” value [3] was “up to 100%”. The “inhibition of growth of murine tumors” value ([3]; mostly 30 mg/kg subcutaneously every other day) was “up to 91%”, the effect on obesity (obesity) was “prevent diet-induced and genetic obesity” and the neurotoxicity in patients [4] was “many patients experience neurotoxicity”. For the same substance, the plasma half-life [5] was “a few minutes”.
